Experimental data from patent US20110082130A1 (LIGAND PHARMACEUTICALS, INC., priority 2006, published 2011).

Target: T1, chimeric human H3 receptor (Homo sapiens, UniProt Q9Y5N1)
T1 construct: made in house; host or cells: Sf9 insect cells (baculovirus); P2 membrane preparation
Assay: Chimeric human H3 receptor GTP binding assay (agonist-stimulated GTP-gamma35S binding, Example 7)
Assay type: biochemical
How it was run: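 Sf9 membranes co-expressing chimeric human H3 receptor and heterotrimeric G-protein, 35 μg/tube, in pH 7.4 Tris buffer with 10 μM GDP. Test compounds (10^−10–10^−6 M) competed against 1 μM histamine, […] GTP-gamma35S, 60 min at room temperature. Filter-bound radioactivity counted; IC50 converted to Ki by Cheng-Prusoff. Agonism/inverse agonism tested without histamine (EC50).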

[1] = assay of Example 7, "*" in Ki of Table II
[2] = Table II, "*" = Ki in assay of Example 7 less than 1 micromolar
[3] = Table II "Ki", symbol *, assay of Example 7

T1 sequence (Q9Y5N1 with tags, fused parts or gaps): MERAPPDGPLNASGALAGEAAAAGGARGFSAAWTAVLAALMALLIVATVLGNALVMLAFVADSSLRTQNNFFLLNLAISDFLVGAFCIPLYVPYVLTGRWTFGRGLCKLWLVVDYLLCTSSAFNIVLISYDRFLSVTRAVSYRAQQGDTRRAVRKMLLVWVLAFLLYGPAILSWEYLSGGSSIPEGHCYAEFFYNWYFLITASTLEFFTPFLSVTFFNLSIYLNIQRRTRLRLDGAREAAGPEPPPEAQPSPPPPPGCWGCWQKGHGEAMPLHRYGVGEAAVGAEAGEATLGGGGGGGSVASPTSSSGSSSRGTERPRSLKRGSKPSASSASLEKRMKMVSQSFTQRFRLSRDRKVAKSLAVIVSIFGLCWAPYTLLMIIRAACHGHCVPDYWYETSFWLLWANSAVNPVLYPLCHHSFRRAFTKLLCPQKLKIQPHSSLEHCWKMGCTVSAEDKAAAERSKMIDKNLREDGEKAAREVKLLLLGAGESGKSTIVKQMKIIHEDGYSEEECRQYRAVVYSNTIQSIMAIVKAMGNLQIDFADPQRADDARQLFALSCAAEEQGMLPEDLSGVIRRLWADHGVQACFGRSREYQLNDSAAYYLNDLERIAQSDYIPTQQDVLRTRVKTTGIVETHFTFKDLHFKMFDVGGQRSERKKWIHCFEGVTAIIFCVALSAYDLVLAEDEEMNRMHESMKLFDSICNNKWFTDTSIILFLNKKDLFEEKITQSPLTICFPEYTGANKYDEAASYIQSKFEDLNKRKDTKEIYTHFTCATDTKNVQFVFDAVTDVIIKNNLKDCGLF

SMILES	Ki [1] [nM]	Ki [2] [nM]	further results
COc1ccc(-n2cc3c(n2)CCN(CC(=O)N2CCN(C4CCC4)CC2)C3)nn1 [Compound 199, 5-[2-(4-cyclobutylpiperazin-1-yl)-2-oxoethyl]-2-(6-methoxypyridazin-3-yl)-4,5,6,7-tetrahydro-2H-pyrazolo[4,3-c]pyridine]	–	< 1000	–
COc1ccc(Cl)cc1-c1nc2c(s1)CN(CC(=O)N1CCN(C3CCC3)CC1)CC2 [Compound 338, 2-(5-chloro-2-methoxyphenyl)-5-[2-(4-cyclobutylpiperazin-1-yl)-2-oxoethyl]-4,5,6,7-tetrahydro[1,3]thiazolo [5,4-c]pyridine]	< 1000	–	–
O=C(CN1CCc2nc(OC3CCCC3)ccc2C1)N1CCN(C2CCC2)CC1 [Compound 185, 6-[2-(4-cyclobutylpiperazin-1-yl)-2-oxoethyl]-2-(cyclopentyloxy)-5,6,7,8-tetrahydro-1,6-naphthyridine]	–	< 1000	–
CC1(C)CN(CC(=O)N2CCN(C3CCC3)CC2)Cc2cnc(N3CCOCC3)nc21 [Compound 239, 6-[2-(4-cyclobutylpiperazin-1-yl)-2-oxoethyl]-8,8-dimethyl-2-morpholin-4-yl-5,6,7,8-tetrahydropyrido[4,3-d]pyrimidine]	–	< 1000	–
CC1CCC[C@H]2CN(C(=O)CN3CCc4nc(N5CCC(F)(F)CC5)ccc4C3)CCN12 (stereo in doubt) [Compound 180, 2-(4,4-difluoropiperidin-1-yl)-6-[2-(6-methyloctahydro-2H-pyrido[1,2-a]pyrazin-2-yl)-2-oxoethyl]-5,6,7,8-tetrahydro-1,6-naphthyridine]	–	< 1000	–
COCCNc1ccc2c(n1)CCN(CC(=O)N1CCN(C3CCC3)CC1)C2 [Compound 663, 6-[2-(4-cyclobutylpiperazin-1-yl)-2-oxoethyl]-N-(2-methoxyethyl)-5,6,7,8-tetrahydro-1,6-naphthyridin-2-amine]	–	–	Ki [3]: < 1000 nM
O=C(CN1CCc2nc(-c3ccc4c(c3)OCCO4)sc2C1)N1CCN(C2CCC2)CC1 [Compound 332]	< 1000	–	–
O=C(CN1CCc2nc(N3CCOCC3)ncc2C1)N1CCN(C2CCCC2)CC1 [Compound 140, 6-[2-(4-cyclopentylpiperazin-1-yl)-2-oxoethyl]-2-morpholin-4-yl-5,6,7,8-tetrahydropyrido[4,3-d]pyrimidine]	–	< 1000	–
CCOc1ccccc1-c1nc2c(s1)CN(CC(=O)N1CCN(C3CCC3)CC1)CC2 [Compound 341, 5-[2-(4-cyclobutylpiperazin-1-yl)-2-oxoethyl]-2-(2-ethoxyphenyl)-4,5,6,7-tetrahydro[1,3]thiazolo [5,4-c]pyridine]	< 1000	–	–
COc1ccc(-c2ccc3c(c2)CCN(CC(=O)N2CCN(C4CCC4)CC2)C3)cc1C [Compound 540, 2-[2-(4-cyclobutylpiperazin-1-yl)-2-oxoethyl]-6-(4-methoxy-3-methylphenyl)-1,2,3,4-tetrahydroisoquinoline]	–	–	Ki [3]: < 1000 nM
O=C(CN1CCc2nc(-c3cccc(Cl)c3)sc2C1)N1CCN(C2CCC2)CC1 [Compound 295, 2-(3-chlorophenyl)-5-[2-(4-cyclobutylpiperazin-1-yl)-2-oxoethyl]-4,5,6,7-tetrahydro[1,3]thiazolo [5,4-c]pyridine]	< 1000	–	–
O=C(CN1CCn2ccnc2C1)N1CCN(C2CCC2)CC1 [Compound 83, 7-[2-(4-cyclobutylpiperazin-1-yl)-2-oxoethyl]-5,6,7,8-tetrahydroimidazo[1,2-a]pyrazine]	–	–	Ki (Table I, P2 membranes of Sf9 cells, 1 μM histamine as agonist, Ki from IC50 by Cheng-Prusoff): < 1000 nM

Now from value to compound, other results behind:

Ki [1] [nM]	Ki [2] [nM]	SMILES	further results
< 1000	–	O=C(CN1CCc2nc(-c3ccc(F)c(Cl)c3)sc2C1)N1CCN(C2CCC2)CC1 [Compound 346, 2-(3-chloro-4-fluorophenyl)-5-[2-(4-cyclobutylpiperazin-1-yl)-2-oxoethyl]-4,5,6,7-tetrahydro[1,3]thiazolo [5,4-c]pyridine]	–
< 1000	–	O=C(CN1CCc2nc(-c3ccc(C(F)(F)F)cc3)sc2C1)N1CCN(C2CCC2)CC1 [Compound 369, 5-[2-(4-cyclobutylpiperazin-1-yl)-2-oxoethyl]-2-[4-(trifluoromethyl)phenyl]-4,5,6,7-tetrahydro[1,3]thiazolo [5,4-c]pyridine]	–
